Source: ChEMBL document CHEMBL1201862, “PubChem BioAssay data set” (2004)
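All cell lines were grown in 96-well plates and treated with compound for 48 hours. GI50 = concentration required for 50% inhibition of growth.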 Active and inactive are the calls of the source. No stated cut-off is given here; in the data, active = GI50 up to about 1.1 µM and inactive = higher.

Columns and labels:
Experiment in all cases: NCI-60 cell line screen, 48 h
A498 = test system: A498
BT-549 = test system: BT-549
DU-145 = test system: DU-145
HL-60 = test system: HL-60
HOP-62 = test system: HOP-62
HOP-92 = test system: HOP-92
Hs-578T = test system: Hs-578T
MCF7 = test system: MCF7
MDA-MB-231 = test system: MDA-MB-231
MDA-MB-435 = test system: MDA-MB-435
NCI-H226 = test system: NCI-H226
NCI-H23 = test system: NCI-H23
OVCAR-3 = test system: OVCAR-3
OVCAR-4 = test system: OVCAR-4
OVCAR-8 = test system: OVCAR-8
SN12C = test system: SN12C
SNB-75 = test system: SNB-75
SR = test system: SR
UACC-62 = test system: UACC-62
SF-539 = test system: SF-539

Measured: GI50

O=[N+]([O-])c1cccc(CSc2nc(O)c3nc[nH]c3n2)c1
inactive: A498 > 100 µM | BT-549 > 100 µM | DU-145 > 100 µM | HL-60 > 100 µM | HOP-62 > 100 µM | HOP-92 > 100 µM | Hs-578T 87.1 µM | MCF7 > 100 µM | MDA-MB-231 > 100 µM | MDA-MB-435 > 100 µM | NCI-H226 79.8 µM | NCI-H23 > 100 µM | OVCAR-3 > 100 µM | OVCAR-4 > 100 µM | OVCAR-8 > 100 µM | SN12C > 100 µM | SNB-75 > 100 µM | SR > 100 µM | UACC-62 50.1 µM

CC(=O)Nc1ncc2c(n1)-c1ccccc1OC2
inactive: A498 > 100 µM | BT-549 > 100 µM | DU-145 > 100 µM | HL-60 > 100 µM | HOP-92 > 100 µM | Hs-578T 19.5 µM | MCF7 > 100 µM | MDA-MB-231 > 100 µM | MDA-MB-435 > 100 µM | NCI-H226 > 100 µM | NCI-H23 > 100 µM | OVCAR-3 > 100 µM | OVCAR-4 > 100 µM | OVCAR-8 > 100 µM | SF-539 > 100 µM | SN12C > 100 µM | SNB-75 65.2 µM | SR > 100 µM | UACC-62 > 100 µM

CCC(NC1=NCCO1)c1cccs1 (configuration not stated)
inactive: A498 22.3 µM | BT-549 20.1 µM | DU-145 13.7 µM | HL-60 18.6 µM | HOP-92 17.4 µM | Hs-578T 11.2 µM | MCF7 15.6 µM | MDA-MB-231 20.7 µM | MDA-MB-435 14.5 µM | NCI-H226 20.3 µM | NCI-H23 16.9 µM | OVCAR-3 16.9 µM | OVCAR-4 23.9 µM | OVCAR-8 16.7 µM | SF-539 15.5 µM | SNB-75 3.24 µM | SR 25.8 µM | UACC-62 16 µM

Clc1nc2c(-c3cccs3)ncnc2n1Cc1ccccc1
inactive: A498 19.4 µM | BT-549 25.8 µM | DU-145 2.49 µM | HL-60 24.5 µM | HOP-62 47.6 µM | HOP-92 9.44 µM | Hs-578T 22.8 µM | MCF7 6.04 µM | MDA-MB-231 32.2 µM | MDA-MB-435 49.2 µM | NCI-H226 15.8 µM | NCI-H23 46.1 µM | OVCAR-3 23 µM | OVCAR-4 44.9 µM | OVCAR-8 49.9 µM | SF-539 40 µM | SN12C 35.8 µM | SNB-75 21.3 µM | SR 6.97 µM | UACC-62 72.3 µM

O=C(O)[C@H](CCC[C@H]1C(=O)O[C@H](c2ccccc2)[C@H](c2ccccc2)N1C(=O)OCc1ccccc1)N[C@@H](c1ccccc1)[C@H](O)c1ccccc1
inactive: A498 28 µM | BT-549 27 µM | DU-145 > 100 µM | HL-60 17.4 µM | HOP-62 19 µM | HOP-92 22.3 µM | Hs-578T 25.4 µM | MCF7 28.3 µM | MDA-MB-231 17.7 µM | MDA-MB-435 20.7 µM | NCI-H23 28.4 µM | OVCAR-3 23.7 µM | OVCAR-4 32.2 µM | OVCAR-8 20.5 µM | SF-539 18.6 µM | SN12C 20.7 µM | SNB-75 17 µM | SR 20.7 µM | UACC-62 22.1 µM

OC1(C2(c3ccc(Cl)cc3)CCCC2)c2ccccc2C2=NCCN21 (configuration not stated)
inactive: A498 15.7 µM | BT-549 16.8 µM | HL-60 14.4 µM | HOP-62 17.4 µM | HOP-92 13.4 µM | Hs-578T 36.3 µM | MCF7 17.5 µM | MDA-MB-231 14.8 µM | MDA-MB-435 12.6 µM | NCI-H226 17.1 µM | NCI-H23 18.7 µM | OVCAR-3 16.4 µM | OVCAR-4 12.9 µM | OVCAR-8 17.3 µM | SN12C 17.5 µM | SNB-75 3.83 µM | SR 18.1 µM | UACC-62 16.1 µM
active: DU-145 0.0716 µM

Cc1ccc2c(c1)[nH]c(=S)n2/C=C1\C(=O)Oc2ccccc2C1=O
inactive: A498 49.1 µM | BT-549 45.7 µM | DU-145 41.3 µM | HL-60 55 µM | HOP-62 51.3 µM | HOP-92 39 µM | Hs-578T 25.5 µM | MCF7 > 100 µM | MDA-MB-231 50.5 µM | MDA-MB-435 61.8 µM | NCI-H226 > 100 µM | NCI-H23 70.8 µM | OVCAR-3 24.4 µM | OVCAR-4 64.1 µM | OVCAR-8 65.8 µM | SF-539 69.7 µM | SN12C 59.4 µM | SNB-75 38.4 µM | SR 71.6 µM | UACC-62 13.1 µM

CCOC(=O)C1=C(N)N2C(=N[C@H]3CCCC[C@@H]32)N=C1
inactive: A498 > 100 µM | BT-549 > 100 µM | DU-145 > 100 µM | HL-60 > 100 µM | HOP-92 > 100 µM | Hs-578T > 100 µM | MCF7 > 100 µM | MDA-MB-231 > 100 µM | MDA-MB-435 > 100 µM | NCI-H226 73.6 µM | NCI-H23 > 100 µM | OVCAR-3 > 100 µM | OVCAR-4 37 µM | OVCAR-8 > 100 µM | SF-539 > 100 µM | SN12C > 100 µM | SNB-75 38.3 µM | SR > 100 µM | UACC-62 > 100 µM

OCC(O)C(O)C(O)C1SC(c2ccccc2)=NN1c1ccccc1 (configuration not stated)
inactive: A498 > 88.5 µM | BT-549 > 100 µM | DU-145 > 61 µM | HL-60 > 88.7 µM | HOP-62 38.9 µM | HOP-92 27 µM | Hs-578T 35.1 µM | MCF7 > 100 µM | MDA-MB-231 > 55 µM | MDA-MB-435 97.9 µM | NCI-H226 > 76 µM | NCI-H23 45.7 µM | OVCAR-3 > 68.9 µM | OVCAR-4 > 88.3 µM | OVCAR-8 54 µM | SF-539 41.2 µM | SN12C > 91.8 µM | SNB-75 16 µM | SR > 81.3 µM | UACC-62 47 µM

O=C(O)CC1OCC=C2C[N+]3([O-])CCC45c6ccccc6NC4C1C2CC53 (configuration not stated)
inactive: A498 > 100 µM | BT-549 > 100 µM | DU-145 > 100 µM | HL-60 > 100 µM | HOP-62 > 100 µM | HOP-92 > 100 µM | Hs-578T > 100 µM | MCF7 > 100 µM | MDA-MB-231 > 100 µM | MDA-MB-435 > 100 µM | NCI-H226 > 100 µM | NCI-H23 > 100 µM | OVCAR-3 > 100 µM | OVCAR-4 > 100 µM | OVCAR-8 > 100 µM | SF-539 > 100 µM | SN12C > 100 µM | SR > 100 µM | UACC-62 > 100 µM

COC(=O)C(CNC(=O)/C=C/c1ccc(OC)c(OC)c1)NC(=O)/C=C/c1ccc(OC)c(OC)c1 (configuration not stated)
inactive: A498 > 100 µM | BT-549 > 100 µM | DU-145 > 100 µM | HOP-62 > 100 µM | HOP-92 > 100 µM | Hs-578T > 100 µM | MCF7 > 100 µM | MDA-MB-231 > 100 µM | MDA-MB-435 > 100 µM | NCI-H226 > 100 µM | NCI-H23 > 100 µM | OVCAR-3 66.5 µM | OVCAR-4 > 100 µM | OVCAR-8 > 100 µM | SF-539 > 100 µM | SN12C > 100 µM | SNB-75 90.6 µM | SR > 100 µM | UACC-62 > 100 µM

O=C(O)c1ccccc1CC(Cc1ccccc1)C(=O)O (configuration not stated)
inactive: A498 > 100 µM | BT-549 > 100 µM | DU-145 > 100 µM | HL-60 > 100 µM | HOP-62 > 100 µM | HOP-92 > 100 µM | Hs-578T > 100 µM | MCF7 > 10 µM | MDA-MB-231 > 100 µM | MDA-MB-435 > 100 µM | NCI-H226 > 100 µM | NCI-H23 > 100 µM | OVCAR-3 > 100 µM | OVCAR-4 > 100 µM | OVCAR-8 > 100 µM | SF-539 > 100 µM | SN12C > 100 µM | SNB-75 > 100 µM | SR > 100 µM

N#C[BH2-][n+]1ccc(C(=O)NNCc2ccccc2)cc1
inactive: A498 > 100 µM | BT-549 > 100 µM | DU-145 > 100 µM | HL-60 > 100 µM | HOP-92 > 100 µM | Hs-578T > 100 µM | MCF7 > 100 µM | MDA-MB-231 > 100 µM | MDA-MB-435 > 100 µM | NCI-H226 > 100 µM | OVCAR-3 > 100 µM | OVCAR-4 > 100 µM | OVCAR-8 > 100 µM | SF-539 > 100 µM | SN12C > 100 µM | SNB-75 > 100 µM | SR > 100 µM | UACC-62 > 100 µM

O=C(/C=C/c1ccc(O)c(O)c1)OCC(OC(=O)/C=C/c1ccc(O)c(O)c1)C(=O)O (configuration not stated)
inactive: A498 > 100 µM | BT-549 > 100 µM | DU-145 > 100 µM | HOP-62 70.5 µM | HOP-92 > 100 µM | Hs-578T > 100 µM | MCF7 > 100 µM | MDA-MB-231 > 100 µM | MDA-MB-435 > 100 µM | NCI-H226 > 100 µM | NCI-H23 > 100 µM | OVCAR-3 55.2 µM | OVCAR-4 90.2 µM | OVCAR-8 > 100 µM | SF-539 > 100 µM | SN12C > 100 µM | SNB-75 63 µM | SR 21.3 µM | UACC-62 > 100 µM
